In data set [1] the test system is MCF-7 breast carcinoma cells. Put plainly: MTT cytotoxicity assay, MCF-7. The format is cell-based, human. The note with it: mean ± SD of three experiments. As for the experimental part: (§1) MCF-7 Adenocarcinoma of the breast in humans and A549 […] lines of cells (purchased from Labco's Sigma-Aldrich) were employed to evaluate the newly synthesized compounds' anti-cancer potential. […] The American type culture collection provided the cell lines and were cultured in 10% FBS added to DMEM (Invitrogen/Life Technologies) (Hyclone), a 10 μg ml^−1 of insulin (Sigma), and a 1% penicillin-streptomycin. The suppliers of all other chemicals and reagents were either Invitrogen or Sigma.
(§2) For the MTT assay, cells were plated at a density of 1.2 to 1.8 × 10 000 cells per well in a total volume of 200 μl, comprising 100 μl of a full growing medium and 100 μl of the substance that was evaluated in each well. The cells were then incubated for 24 hours.
(§3) Aspirate the cells gently using a pipette after adding 6.0 to 8.0 ml of full growth media. […] Transfer the proper aliquots to new culture vessels, discard the supernatant, and resuspend the cell pellet in fresh growth media. For a full day, incubate the cultures at 37 °C. […] To perform the MTT assay, examine the plates using an inverted microscope.
(§4) Additionally, incorporate a blank control containing complete medium without any cells. Remove the cultures from the incubator and transfer them to a laminar flow hood or sterile workspace. […] Add the reconstituted MTT in an amount equal to 10% of the total volume of the culture medium. Return the cultures to the incubator for 2 to 4 hours, depending on the cell type and maximum cell density; typically, 2 hours is adequate, though longer incubation may be required for low-density or less metabolically active cells. It is important to maintain consistent incubation times for accurate comparisons.
(§5) Gentle mixing with a gyratory shaker will facilitate the dissolution of the crystals. In denser cultures, pipetting up and down may be necessary to ensure complete dissolution of the MTT formazan crystals. Measure the absorbance spectrophotometrically at 570 nm and assess the background absorbance of the multi-well plates at 690 nm, which should be subtracted from the 570 nm measurement. The tests in multi-well plates can be read using an appropriate plate reader, or the contents can be transferred to cuvettes for measurement.
(In general: Tetrazolium assays rely on reduction of a dye to a coloured formazan, in cell work by metabolically active cells.)

Another data set has as its system A549 lung cancer cells. Put plainly: MTT cytotoxicity assay, A549. The data set is classed as cell-based, human. The note with it: mean ± SD of three experiments. As for the experimental part:
as §1, §2, §3, §4, §5

A further data set concerns the target T1, EGFR^WT (Homo sapiens, UniProt P00533).
T1 construct: purchased 40321
Put plainly: EGFR Kinase Assay Kit (Catalog # 40321), Kinase-Glo Max luminescence. As to conditions: five concentrations, read-out: EGFR kinase inhibitory activity IC50. The data set is classed as biochemical. (Kinase-Glo reads ATP consumption through a luciferase reaction.)

This note sets out measurements from article PMC12023740, “Semi-synthesis and biological activities of heterocyclic compounds containing camphor” (RSC Advances, 2025).

As a reminder, the IC50 is the point on the concentration scale where inhibition reaches its midpoint.

T1 sequence (P00533 668-1210 limits assumed): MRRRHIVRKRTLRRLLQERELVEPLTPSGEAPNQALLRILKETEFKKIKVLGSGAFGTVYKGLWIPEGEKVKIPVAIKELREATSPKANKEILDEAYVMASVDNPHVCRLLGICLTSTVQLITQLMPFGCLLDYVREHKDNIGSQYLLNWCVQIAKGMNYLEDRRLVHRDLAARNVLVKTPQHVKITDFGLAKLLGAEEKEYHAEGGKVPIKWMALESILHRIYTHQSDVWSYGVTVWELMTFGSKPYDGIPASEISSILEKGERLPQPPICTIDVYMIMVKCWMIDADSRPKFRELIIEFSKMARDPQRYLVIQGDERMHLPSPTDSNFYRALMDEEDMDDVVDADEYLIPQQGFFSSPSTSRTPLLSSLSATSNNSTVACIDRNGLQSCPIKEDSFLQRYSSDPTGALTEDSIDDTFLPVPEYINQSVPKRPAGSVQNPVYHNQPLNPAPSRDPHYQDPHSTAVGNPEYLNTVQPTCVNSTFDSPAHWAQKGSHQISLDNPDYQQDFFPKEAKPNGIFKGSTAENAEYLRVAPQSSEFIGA

Consider `CC12CCC(C3(C1)NC(=S)NC(=N)C3C#N)C2(C)C` (stereo not shown) [Compound 6, 6′-Imino-4,7,7-trimethyl-2′-thioxotetrahydro-1′H-spiro[bicyclo[2.2.1]heptane-2,4′-pyrimidine]-5′-carbonitrile], for which the IC50 in data set [1] (Homo sapiens, MCF7, MTT test) was 19.9 ± 0.73 µM; in the data set on A549 lung cancer cells (Homo sapiens, A549, MTT test), 28.5 ± 0.99 µM.

`CC12CCC(C3(C1)NC(=S)NC(=O)C3C#N)C2(C)C` (stereo not shown) [Compound 7, 4,7,7-Trimethyl-6′-oxo-2′-thioxotetrahydro-1′H-spiro[bicyclo[2.2.1]heptane-2,4′-pyrimidine]-5′-carbonitrile]: the IC50 in data set [1] (Homo sapiens, MCF7, MTT test) came to 10.1 ± 0.39 µM; in the data set on A549 lung cancer cells (Homo sapiens, A549, MTT test), 22.2 ± 0.77 µM.

With `CC(=O)C1C(=O)NC(=S)NC12CC1(C)CCC2C1(C)C` (stereo not shown) [Compound 8, 5′-Acetyl-4,7,7-trimethyl-2′-thioxodihydro-1′H-spiro[bicyclo[2.2.1]heptane-2,4′-pyrimidin]-6′(5′H)-one], the IC50 stood at 6.15 ± 0.23 µM in data set [1] (Homo sapiens, MCF7, MTT test) and 3.34 ± 0.12 µM in the data set on A549 lung cancer cells (Homo sapiens, A549, MTT test).

With `CC12CCC(C3(C1)NC(=O)NC(=N)C3C#N)C2(C)C` (stereo not shown) [Compound 10, 6′-Imino-4,7-trimethyl-2′-oxotetrahydro-1′H-spiro[bicyclo[2.2.1]heptane-2,4′-pyrimidine]-5′-carbonitrile], the IC50 is 12.7 ± 0.47 µM in data set [1] (Homo sapiens, MCF7, MTT test) and 23.3 ± 0.81 µM in the data set on A549 lung cancer cells (Homo sapiens, A549, MTT test).

Turning to `CC12CCC(C3(C1)NC(=O)NC(=O)C3C#N)C2(C)C` (stereo not shown) [Compound 11, 4,7,7-Trimethyl-2′,6′-dioxotetrahydro-1′H-spiro[bicyclo[2.2.1]heptane-2,4′-pyrimidine]-5′-carbonitrile], the IC50 in data set [1] (Homo sapiens, MCF7, MTT test) came out at 35 ± 1.32 µM; in the data set with A549 lung cancer cells (Homo sapiens, A549, MTT test), 56.6 ± 2.01 µM.

`CC(=O)C1C(=O)NC(=O)NC12CC1(C)CCC2C1(C)C` (stereo not shown) [Compound 12, 5′-Acetyl-4,7,7-trimethyl-1′H-spiro[bicyclo[2.2.1]heptane-2,4′-pyrimidine]-2′,6′(3′H,5′H)-dione]: the IC50 amounted to 3.2 ± 0.12 µM in data set [1] (Homo sapiens, MCF7, MTT test) and 14.4 ± 0.5 µM in the data set with A549 lung cancer cells (Homo sapiens, A549, MTT test).

On to `Cc1ccc(-c2cs/c(=N/N=C3/CC4CCC3(C)C4(C)C)[nH]2)cc1` (stereo not shown) [Compound 16a], for which the IC50 in data set [1] (Homo sapiens, MCF7, MTT test) is 2.16 ± 0.08 µM; in the data set with A549 lung cancer cells (Homo sapiens, A549, MTT test), 4.13 ± 0.14 µM.

For the compound `CC12CCC(C/C1=N/N=c1\[nH]c(-c3ccc(Cl)cc3)cs1)C2(C)C` (stereo not shown) [Compound 16b], the IC50 in data set [1] (Homo sapiens, MCF7, MTT test) was determined as 8.29 ± 0.3 µM; with A549 lung cancer cells (Homo sapiens, A549, MTT test) it was 15.2 ± 0.53 µM.

Turning to `CC12CCC(C/C1=N/N=c1\[nH]c(-c3ccc(Br)cc3)cs1)C2(C)C` (stereo not shown) [Compound 16c], the IC50 in data set [1] (Homo sapiens, MCF7, MTT test) stood at 2.84 ± 0.1 µM; in the data set on A549 lung cancer cells (Homo sapiens, A549, MTT test) it was 1.29 ± 0.04 µM.

As to `CC12CCC(C/C1=N/N=C/c1cn(-c3ccc(S(N)(=O)=O)cc3)nc1-c1ccc(Br)cc1)C2(C)C` (stereo not shown) [Compound 20], the IC50 turned out to be 0.78 ± 0.03 µM in data set [1] (Homo sapiens, MCF7, MTT test); 1.69 ± 0.06 µM in the data set on A549 lung cancer cells (Homo sapiens, A549, MTT test); 198 nM at EGFR^WT.

Turning to `Cc1nc(Nc2ncc(C(=O)Nc3c(C)cccc3Cl)s2)cc(N2CCN(CCO)CC2)n1` [Dasatinib, reference compound], the IC50 in data set [1] (Homo sapiens, MCF7, MTT test) was found to be 7.99 ± 0.29 µM; in the data set on A549 lung cancer cells (Homo sapiens, A549, MTT test) it was 11.8 µM; in the data set on A549 lung cancer cells (MTT test), 11.8 ± 0.41 µM.

For `COc1cccc2c1C(=O)c1c(O)c3c(c(O)c1C2=O)C[C@@](O)(C(=O)CO)C[C@@H]3O[C@H]1C[C@H](N)[C@H](O)[C@H](C)O1` [Doxorubicin, reference compound], the half-inhibitory concentration (IC50) stood at 3.1 µM in data set [1] (Homo sapiens, MCF7, MTT test); 3.12 ± 0.11 µM in data set [1] (MTT test); 2.43 ± 0.08 µM in the data set on A549 lung cancer cells (Homo sapiens, A549, MTT test).

Regarding `C#Cc1cccc(Nc2ncnc3cc(OCCOC)c(OCCOC)cc23)c1` [Erlotinib, reference compound], the IC50 in data set [1] (Homo sapiens, MCF7, MTT test) came to 13.9 ± 1.3 µM.
